Measured values taken from US20220008567A1, “LIQUIDLY INJECTABLE, SELF-STABILIZING BIOPOLYMERS FOR THE DELIVERY OF RADIONUCLIDE” (priority 2018, published 2022).

Tests used:
[1] = tested on: BxPc3, MIA PaCa-2 and AsPc-1 pancreatic cells; assay: In vitro cytotoxicity by MTS across pancreatic cell lines; conditions: FIG. 5
Description: (§1) In vitro cytotoxicity assessment. All cell lines were cultured in monolayers in sterile, vented culture flasks (Corning). Cells were passaged, collected, and then counted with 0.4% Trypan Blue (Thermo Fisher Scientific). Cells were then formulated in their respective media and plated in 96-well plates at 5,000 cells per well in 100 μL. After allowing cells to incubate at 37° C. for 12 h, drugs were then added to the wells. Each drug was formulated at the highest concentration in the cell media and then serially diluted. A PTX equivalent concentration between 10-4 and 10-12 M of each construct was plated in quadruplicate and allowed to incubate for 72 h. 20 μL of CellTiter 96® AQueoous One solution (Promega) was then added to each well. After 1.5 h, the absorbance of each plate was read at 490 nm and normalized to untreated cells to determine the relative cell survival. The half effective concentration (EC50) was calculated as the inflection between the curve's maxima and minima.

BxPc3 cells [2] = assay: MTS cell proliferation assay (in vitro cytotoxicity)
Description: as §1

BxPc3 cells [3] = assay: Cell cycle distribution by propidium iodide flow cytometry (G2/M arrest); format: cell-based, human; conditions: 1 nM of equivalent paclitaxel
Description: As radiation sensitization is driven by late G2/M arrest, the effects of paclitaxel on cell cycle progression were examined. BxPc3 cells were treated in vitro with 1 nM of equivalent paclitaxel, stained with propidium iodide to measure relative DNA quantities, and analyzed by flow cytometry to assess the cell cycle distribution over time.

CC(=O)O[C@H]1C(=O)[C@@]2(C)[C@H]([C@H](OC(=O)c3ccccc3)[C@]3(O)C[C@H](OC(=O)[C@H](O)[C@@H](NC(=O)c4ccccc4)c4ccccc4)C(C)=C1C3(C)C)[C@]1(OC(C)=O)CO[C@@H]1C[C@@H]2O [PTX, paclitaxel]
cytotoxicity in each cell line [1]: nanomolar cytotoxicity | in vitro cytotoxicity (BxPc3 cells [2]; FIG. 4A): nanomolar | EC50 (BxPc3 cells [2]; Homo sapiens, BXPC-3, 72 h, read-out: relative half-inhibitory concentration (EC50)): 3.7 nM | peak proportion of cell population in G2/M phase (BxPc3 cells [3]): 37.9% | time to maximum proportion of G2/M cells (BxPc3 cells [3]): 12 h
